# Reference: PubChem BioAssay AID1963854 (Molecular Pharmacology Branch, DTP, NCI, 2024)
# Tested on: 186277-243-T-J2-PDC complex spheroid viability
# Test: Anticancer human tumor 186277-243-T-J2-PDC patient-derived colon adenocarcinoma cell line growth inhibition [POLQ]
# Conditions: for IC50: curve of first compound; for viability, T/C: stronger effect = lower value
# In short: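 Patient-derived tumour cells were co-cultured with HUVEC and mesenchymal stem cells as multicellular spheroids at 37 °C. They were treated with POLQ inhibitors (novobiocin, ART-558, RP6685) alone or combined with other agents. Top concentrations were at or near clinical Cmax (otherwise 10 microM; SN-38 at 1 microM), decreasing in half-log steps.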
# [1] = second compound 0.0316 µM, first compound 0.0316 µM
# [2] = second compound 0.0316 µM, first compound 0.1 µM
# [3] = second compound 0.0316 µM, first compound 0.316 µM
# [4] = second compound 0.0316 µM, first compound 1 µM
# [5] = second compound 0.1 µM, first compound 0.0316 µM
# [6] = second compound 0.1 µM, first compound 0.1 µM
# [7] = second compound 0.1 µM, first compound 0.316 µM
# [8] = second compound 0.1 µM, first compound 1 µM
# [9] = second compound 0.316 µM, first compound 0.0316 µM
# [10] = second compound 0.316 µM, first compound 0.1 µM
# [11] = second compound 0.316 µM, first compound 0.316 µM
# [12] = second compound 0.316 µM, first compound 1 µM
# [13] = second compound 1 µM, first compound 0.0316 µM
# [14] = second compound 1 µM, first compound 0.1 µM
# [15] = second compound 1 µM, first compound 0.316 µM
# [16] = second compound 1 µM, first compound 1 µM
# [17] = second compound 3.16 µM, first compound 0.0316 µM
# [18] = second compound 3.16 µM, first compound 0.1 µM
# [19] = second compound 3.16 µM, first compound 0.316 µM
# [20] = second compound 3.16 µM, first compound 1 µM
# [21] = second compound 10 µM, first compound 0.0316 µM
# [22] = second compound 10 µM, first compound 0.1 µM
# [23] = second compound 10 µM, first compound 0.316 µM
# [24] = second compound 10 µM, first compound 1 µM
# [25] = second compound 0.0316 µM, first compound 3.16 µM
# [26] = second compound 0.0316 µM, first compound 10 µM
# [27] = second compound 0.1 µM, first compound 3.16 µM
# [28] = second compound 0.1 µM, first compound 10 µM
# [29] = second compound 0.316 µM, first compound 3.16 µM
# [30] = second compound 0.316 µM, first compound 10 µM
# [31] = second compound 1 µM, first compound 3.16 µM
# [32] = second compound 1 µM, first compound 10 µM
# [33] = second compound 3.16 µM, first compound 3.16 µM
# [34] = second compound 3.16 µM, first compound 10 µM
# [35] = second compound 10 µM, first compound 3.16 µM
# [36] = second compound 10 µM, first compound 10 µM
# 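Note: spheroids exposed to compounds for seven days.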
# 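Throughout, for viability, T/C: 100% = DMSO vehicle control viability.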
compound,measurement,setting,value
COc1cccc(OCCCN)c1-c1cc(Nc2cnc(C#N)cn2)n[nH]1 + Nc1ccc(C#CCN(C(=O)Cc2ncc(C(F)(F)F)cc2C(F)(F)F)c2ccc(F)cc2)nn1,IC50,second compound 0.0316 µM,< 0.00316 µM
same,IC50,second compound 0.1 µM,< 0.00316 µM
same,IC50,second compound 0.316 µM,< 0.00316 µM
same,IC50,second compound 1 µM,< 0.00316 µM
same,IC50,second compound 3.16 µM,< 0.00316 µM
same,IC50,second compound 10 µM,< 0.00316 µM
same,"viability, T/C","second compound 0.0316 µM, first compound 0.00316 µM",47%
same,"viability, T/C","second compound 0.0316 µM, first compound 0.01 µM",13.1%
same,"viability, T/C",[1],10.3%
same,"viability, T/C",[2],9.69%
same,"viability, T/C",[3],9.94%
same,"viability, T/C",[4],10.9%
same,"viability, T/C","second compound 0.1 µM, first compound 0.00316 µM",38.6%
same,"viability, T/C","second compound 0.1 µM, first compound 0.01 µM",13.4%
same,"viability, T/C",[5],9.59%
same,"viability, T/C",[6],9.13%
same,"viability, T/C",[7],8.61%
same,"viability, T/C",[8],9.39%
same,"viability, T/C","second compound 0.316 µM, first compound 0.00316 µM",37.4%
same,"viability, T/C","second compound 0.316 µM, first compound 0.01 µM",13.8%
same,"viability, T/C",[9],9.62%
same,"viability, T/C",[10],8.58%
same,"viability, T/C",[11],10.1%
same,"viability, T/C",[12],9.81%
same,"viability, T/C","second compound 1 µM, first compound 0.00316 µM",37.2%
same,"viability, T/C","second compound 1 µM, first compound 0.01 µM",11.3%
same,"viability, T/C",[13],9.81%
same,"viability, T/C",[14],8.9%
same,"viability, T/C",[15],10.1%
same,"viability, T/C",[16],9.12%
same,"viability, T/C","second compound 3.16 µM, first compound 0.00316 µM",27.5%
same,"viability, T/C","second compound 3.16 µM, first compound 0.01 µM",10.3%
same,"viability, T/C",[17],9.29%
same,"viability, T/C",[18],8.63%
same,"viability, T/C",[19],10.8%
same,"viability, T/C",[20],10.4%
same,"viability, T/C","second compound 10 µM, first compound 0.00316 µM",17.6%
same,"viability, T/C","second compound 10 µM, first compound 0.01 µM",8.38%
same,"viability, T/C",[21],9.28%
same,"viability, T/C",[22],8.09%
same,"viability, T/C",[23],9.97%
same,"viability, T/C",[24],9.55%
COc1cc2cc(C(=O)CCC(=O)O)sc2cc1OC + COC1C(OC(N)=O)C(O)C(Oc2ccc3c(O)c(NC(=O)c4ccc(O)c(CC=C(C)C)c4)c(=O)oc3c2C)OC1(C)C,IC50,second compound 0.0316 µM,> 10 µM
same,IC50,second compound 0.1 µM,> 10 µM
same,IC50,second compound 0.316 µM,> 10 µM
same,IC50,second compound 1 µM,> 10 µM
same,IC50,second compound 3.16 µM,> 10 µM
same,IC50,second compound 10 µM,> 10 µM
same,"viability, T/C",[1],110%
same,"viability, T/C",[2],99.3%
same,"viability, T/C",[3],101%
same,"viability, T/C",[4],99.2%
same,"viability, T/C",[25],106%
same,"viability, T/C",[26],96.6%
same,"viability, T/C",[5],98.3%
same,"viability, T/C",[6],88%
same,"viability, T/C",[7],103%
same,"viability, T/C",[8],101%
same,"viability, T/C",[27],103%
same,"viability, T/C",[28],103%
same,"viability, T/C",[9],102%
same,"viability, T/C",[10],102%
same,"viability, T/C",[11],93.6%
same,"viability, T/C",[12],99.5%
same,"viability, T/C",[29],98.1%
same,"viability, T/C",[30],120%
same,"viability, T/C",[13],111%
same,"viability, T/C",[14],99.1%
same,"viability, T/C",[15],109%
same,"viability, T/C",[16],106%
same,"viability, T/C",[31],110%
same,"viability, T/C",[32],103%
same,"viability, T/C",[17],89.5%
same,"viability, T/C",[18],108%
same,"viability, T/C",[19],100%
same,"viability, T/C",[20],98.9%
same,"viability, T/C",[33],105%
same,"viability, T/C",[34],114%
same,"viability, T/C",[21],106%
same,"viability, T/C",[22],111%
same,"viability, T/C",[23],110%
same,"viability, T/C",[24],117%
same,"viability, T/C",[35],105%
same,"viability, T/C",[36],101%
O=c1[nH]cc(F)c(=O)[nH]1 + Cc1cccc(N(C)C(=O)C2C(O)CCN2c2nc(C)cc(C(F)(F)F)c2C#N)c1,IC50,second compound 0.0316 µM,9.4 µM
same,IC50,second compound 0.1 µM,> 10 µM
same,IC50,second compound 0.316 µM,9.14 µM
same,IC50,second compound 1 µM,9.77 µM
same,IC50,second compound 3.16 µM,> 10 µM
same,IC50,second compound 10 µM,8.83 µM
same,"viability, T/C",[1],103%
same,"viability, T/C",[2],99.5%
same,"viability, T/C",[3],95.4%
same,"viability, T/C",[4],112%
same,"viability, T/C",[25],75.5%
same,"viability, T/C",[26],48.5%
same,"viability, T/C",[5],105%
same,"viability, T/C",[6],99.9%
same,"viability, T/C",[7],98.9%
same,"viability, T/C",[8],98.3%
same,"viability, T/C",[27],73.5%
same,"viability, T/C",[28],52.2%
same,"viability, T/C",[9],87.2%
same,"viability, T/C",[10],91.6%
same,"viability, T/C",[11],94.4%
same,"viability, T/C",[12],116%
same,"viability, T/C",[29],76.5%
same,"viability, T/C",[30],47.8%
same,"viability, T/C",[13],102%
same,"viability, T/C",[14],102%
same,"viability, T/C",[15],104%
same,"viability, T/C",[16],103%
same,"viability, T/C",[31],79.9%
same,"viability, T/C",[32],49.4%
same,"viability, T/C",[17],112%
same,"viability, T/C",[18],108%
same,"viability, T/C",[19],88.5%
same,"viability, T/C",[20],99.7%
same,"viability, T/C",[33],81.8%
same,"viability, T/C",[34],52.1%
same,"viability, T/C",[21],105%
same,"viability, T/C",[22],110%
same,"viability, T/C",[23],100%
same,"viability, T/C",[24],111%
same,"viability, T/C",[35],77.6%
same,"viability, T/C",[36],46.7%
COc1ccc([C@@H](O)c2cc(-c3ncnc4cc(N5CCOCC5)ccc34)c(F)cc2Cl)nn1 + Nc1ccc(C#CCN(C(=O)Cc2ncc(C(F)(F)F)cc2C(F)(F)F)c2ccc(F)cc2)nn1,IC50,second compound 0.0316 µM,> 10 µM
same,IC50,second compound 0.1 µM,> 10 µM
same,IC50,second compound 0.316 µM,> 10 µM
same,IC50,second compound 1 µM,> 10 µM
same,IC50,second compound 3.16 µM,> 10 µM
same,IC50,second compound 10 µM,> 10 µM
same,"viability, T/C",[1],104%
same,"viability, T/C",[2],109%
same,"viability, T/C",[3],110%
same,"viability, T/C",[4],103%
same,"viability, T/C",[25],90.2%
same,"viability, T/C",[26],58.5%
same,"viability, T/C",[5],97.6%
same,"viability, T/C",[6],106%
same,"viability, T/C",[7],99.5%
same,"viability, T/C",[8],96.3%
same,"viability, T/C",[27],101%
same,"viability, T/C",[28],67.7%
same,"viability, T/C",[9],99.3%
same,"viability, T/C",[10],95.6%
same,"viability, T/C",[11],107%
same,"viability, T/C",[12],108%
same,"viability, T/C",[29],101%
same,"viability, T/C",[30],60%
same,"viability, T/C",[13],114%
same,"viability, T/C",[14],101%
same,"viability, T/C",[15],104%
same,"viability, T/C",[16],95.4%
same,"viability, T/C",[31],98.3%
same,"viability, T/C",[32],63.8%
same,"viability, T/C",[17],111%
same,"viability, T/C",[18],105%
same,"viability, T/C",[19],97.6%
same,"viability, T/C",[20],116%
same,"viability, T/C",[33],99.7%
same,"viability, T/C",[34],63.2%
same,"viability, T/C",[21],104%
same,"viability, T/C",[22],90.6%
same,"viability, T/C",[23],102%
same,"viability, T/C",[24],114%
same,"viability, T/C",[35],111%
same,"viability, T/C",[36],57%
